Legend:
Assay type in all cases: functional
[1] = system: Rattus norvegicus; experiment: Estrogen agonistic activity in immature Rattus norvegicus Sprague-Dawley (rat) assessed as gain in uterine weight at 10 mg/kg, po qd for 3 days
[2] = system: Rattus norvegicus; experiment: Estrogen antagonistic activity in immature Rattus norvegicus Sprague-Dawley (rat) assessed as inhibition of ethynylestradiol-induced increase in uterine weight at 10 mg/kg, po qd for 3 days; details: 72 h
[3] = system: Rattus norvegicus; experiment: Estrogen agonistic activity in immature Rattus norvegicus Sprague-Dawley (rat) assessed as uterine weight at 0.02 mg/kg, po qd for 3 days (reference value: 14 +/- 1.3 to 22.23 +/- 1.2 mg)

In the case of `COc1ccc(C2COc3cc(OCCCC(C)(C)O)ccc3C2)cc1` (configuration not stated), the Activity [1] is reported as 31% and the inhibition in vivo at 10 mg/kg [2] is reported as 6%.

`CCC(O)(CC)CCCOc1ccc2c(c1)OCC(c1ccc(OC)cc1)C2` (configuration not stated) showed an Activity [1] of 48% and an inhibition in vivo at 10 mg/kg [2] of 3%.

For `C=C1CC[C@H](O)C/C1=C/C=C1\CCC[C@]2(C)[C@@H]([C@H](C)CCCC(C)C)CC[C@@H]12` [CHOLECALCIFEROL], the Activity [1] was 82% and the inhibition in vivo at 10 mg/kg [2] was 39%.

For `C#C[C@]1(O)CC[C@H]2[C@@H]3CCc4cc(O)ccc4[C@H]3CC[C@@]21C` [ETHINYL ESTRADIOL], the Activity [3] was 85 mg and the Activity [1] was 480%.

`COc1ccc2c(c1)OC(C)(C)C(c1ccccc1)C2c1ccc(OCCN2CCCC2)cc1` (configuration not stated) [ORMELOXIFENE] was tested, and the Activity [1] was 156% and the inhibition in vivo at 10 mg/kg [2] was 67%.

Molecule `O=C(c1ccc(OCCN2CCCCC2)cc1)c1c(-c2ccc(O)cc2)sc2cc(O)ccc12` [RALOXIFENE] has an Activity [1] of 90% and an inhibition in vivo at 10 mg/kg [2] of 57%.
